Values of other authors, collected in patent US20250205146A1, “GRAPHENE-BASED DRUG DELIVERY DEVICE FOR MUCOSAL AND TRANSMUCOSAL ADMINISTRATION” (SISSA - SCUOLA INTERNAZIONALE SUPERIORE DI STUDI AVANZATI, priority 2022, published 2025).

Conditions: cyclic voltammetry, depending on the electrochemical system used

For `Cn1c(=O)c2c(ncn2C)n(C)c1=O` [caffeine], the “irreversible oxidation peak potential” value is listed as “over 1.4 V”.
